These are literature values, as cited in PMC3199145 (Future medicinal chemistry, 2011).

Data set [1] has as its system Trypanosoma cruzi.
Data set [2] has as its system Trypanosoma brucei cathepsin B-like protease (TbCatB). The settings on record: read-out: IC50 TbCatB.
In data set [3] the test system is Trypanosoma cruzi. Particulars: drug concentration that completely clears parasite from T. cruzi infected macrophage cells; P Doyle & J Engel. Unpublished Data.

Turning to `C[C@@H](c1nc(-c2ccc(C#N)cc2)cs1)[C@](O)(Cn1cncn1)c1ccc(F)cc1F` [Ravuconazole], the “Efficacy in animal models” value in the data set with Trypanosoma cruzi [1] (compared with posoconazole) was “more limited than posoconazole”.

By IC50 is commonly meant the point on the concentration scale where inhibition reaches its midpoint. Consider `CN1CCN(C(=O)N[C@@H](Cc2ccccc2)C(=O)N[C@H](/C=C/S(=O)(=O)c2ccccc2)CCc2ccccc2)CC1` [Compound 1, K11777], for which, in data set [2], the IC50 was 4 µM. Besides, in the data set with Trypanosoma cruzi [3], the “MTC Trypanosoma cruzi (minimal trypanocidal concentration)” value was 8 µM. Moreover, the “Efficacy in vivo against T. cruzi parasites” value in the data set on Trypanosoma cruzi [1] is recorded as “effective”.

Turning to `CC[C@@H]([C@H](C)O)n1ncn(-c2ccc(N3CCN(c4ccc(OC[C@@H]5CO[C@@](Cn6cncn6)(c6ccc(F)cc6F)C5)cc4)CC3)cc2)c1=O` [posaconazole], the “Cure of mice with acute and chronic Chagas disease” value in the data set with Trypanosoma cruzi [1] (mice) is given as “able to cure mice”.
